Laboratory results taken from patent US12059425B2, “Heterocyclic compounds and uses thereof” (Kumquat Biosciences Inc., priority 2022, dated 2024).

Columns and labels:
GP2D cells = assay: Ras cellular assay, cell proliferation GP2D; format: cell-based
Procedure, shortened: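 GP2D cells (G12D Ras mutant) seeded (e.g., 800/well) and treated the next day with a dilution series (e.g., 9-point, 3-fold). After approximately 5 days, viability measured by CellTiter-Glo luminescence; IC50 from four-parameter fit.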

K-Ras G12V = target: T1, K-Ras G12V (Homo sapiens, UniProt P01116, G12V); assay: PPI-HTRF assay, K-Ras G12V / SOS1 interaction; format: biochemical; details: HTRF, K-Ras G12V; read-out: PPI-HTRF-5 nM (K-Ras G12V IC50)
T1 construct: made in house; host or cells: E. coli, e.g. BL21 (DE3)
Procedure, shortened: (§1)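 Compound in DMSO is dispensed first, then GST-K-Ras plus anti-GST-Eu(K), then His-hSOS1 plus anti-6His-XL665. Plates incubate about 10 min or longer before HTRF measurement at 620 and 665 nm. IC50 values are derived from the emission ratio for each K-Ras variant.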

SW620 cells = assay: Ras cellular assay, cell proliferation SW620; format: cell-based; details: Homo sapiens, SW-620
Source text: For example, this assay can be also used to assess selective growth inhibition of a mutant Ras protein relative to a wildtype, or relative to a different mutant Ras protein.

K-Ras G12S = target: T2, K-Ras G12S (Homo sapiens, UniProt P01116, G12S); assay: PPI-HTRF assay, K-Ras G12S / SOS1 interaction; format: biochemical; details: read-out: PPI-HTRF-5 nM (K-Ras G12S IC50)
T2 construct: made in house; host or cells: E. coli, e.g. BL21 (DE3)
Procedure, shortened: as §1

wildtype K-Ras = target: T3, wildtype K-Ras (Homo sapiens, UniProt P01116); assay: PPI-HTRF assay, wildtype K-Ras / SOS1 interaction; format: biochemical; details: HTRF, K-Ras wt; read-out: PPI-HTRF-5 nM (K-Ras wt IC50)
T3 construct: made in house; host or cells: E. coli, e.g. BL21 (DE3)
Procedure, shortened: as §1

K-Ras G12D = target: T4, K-Ras G12D (Homo sapiens, UniProt P01116, G12D); assay: PPI-HTRF assay, K-Ras G12D / SOS1 interaction; format: biochemical; details: HTRF, K-Ras G12D; read-out: PPI-HTRF-5 nM (K-Ras G12D IC50)
T4 construct: made in house; host or cells: E. coli, e.g. BL21 (DE3)
Procedure, shortened: as §1

A549 cells = assay: Ras cellular assay, cell proliferation A549; format: cell-based; details: Homo sapiens
Procedure, shortened: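 G12S-mutant A549 cells (800/well) in RPMI-1640 plus 10% heat-inactivated FBS, standard or ultra-low attachment 384-well plates, dosed the day after plating with a 10-point 3-fold series. Viability by CellTiter-Glo luminescence about 6 days later; IC50 from four-parameter fit.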

T1 sequence (P01116 1-188 isoform P01116-2 G12V): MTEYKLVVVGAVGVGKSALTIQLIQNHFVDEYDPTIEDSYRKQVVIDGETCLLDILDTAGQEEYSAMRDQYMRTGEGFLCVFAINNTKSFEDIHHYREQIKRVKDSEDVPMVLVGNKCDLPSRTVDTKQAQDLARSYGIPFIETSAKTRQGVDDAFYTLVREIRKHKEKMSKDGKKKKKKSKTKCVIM
T3 sequence (P01116 1-188 isoform P01116-2): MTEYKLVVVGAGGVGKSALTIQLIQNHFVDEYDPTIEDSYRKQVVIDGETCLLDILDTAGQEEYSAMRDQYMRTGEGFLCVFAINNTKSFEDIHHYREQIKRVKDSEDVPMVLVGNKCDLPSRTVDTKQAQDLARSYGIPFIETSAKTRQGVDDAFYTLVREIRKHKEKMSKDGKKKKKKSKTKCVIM
T2 sequence (P01116 1-188 isoform P01116-2 G12S): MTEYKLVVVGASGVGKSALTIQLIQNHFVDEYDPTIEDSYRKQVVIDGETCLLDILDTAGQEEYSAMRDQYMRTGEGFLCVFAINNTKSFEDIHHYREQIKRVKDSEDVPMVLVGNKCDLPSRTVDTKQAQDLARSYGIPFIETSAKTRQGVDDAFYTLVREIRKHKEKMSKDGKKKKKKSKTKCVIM
T4 sequence (P01116 1-188 isoform P01116-2 G12D): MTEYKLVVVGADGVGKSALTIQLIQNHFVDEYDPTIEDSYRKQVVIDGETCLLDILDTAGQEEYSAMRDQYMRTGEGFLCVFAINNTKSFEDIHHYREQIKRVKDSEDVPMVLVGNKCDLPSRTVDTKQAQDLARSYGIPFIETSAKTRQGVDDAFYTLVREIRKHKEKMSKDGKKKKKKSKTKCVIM

Row | IC50 (K-Ras G12V) [µM] | IC50 (SW620 cells) [µM] | IC50 (K-Ras G12S) [µM] | IC50 (wildtype K-Ras) [µM] | IC50 (K-Ras G12D) [µM] | IC50 (A549 cells) [µM] | Structure (SMILES) | IC50 (GP2D cells) [µM]
1 | < 5 | < 5 | < 5 | < 5 | < 5 | < 5 | N#Cc1c(N)sc2c(F)ccc(-c3c(Cl)c4c5c(nc(OC[C@@]67CCCN6C[C@H](F)C7)nc5c3F)N(CC(F)F)C3COCC3CO4)c12 (stereo partly drawn) [compound 188, 2-amino-4-(6-chloro-12-(2,2-difluoroethyl)-4-fluoro-2-(((2R,7aS)-2-fluorotetrahydro-1H-pyrrolizin-7a(5H)-yl)methoxy)-8a,9,11a,12-tetrahydro-8H,11H-furo[3′,4′:6,7][1,5]oxazocino[4,3,2-de]quinazolin-5-yl)-7-fluorobenzo[b]thiophene-3-carbonitrile] | < 5
2 | < 5 | < 5 | < 5 | < 5 | < 5 | < 5 | N#Cc1c(N)sc2c(F)ccc(-c3c(Cl)c4c5c(nc(OC[C@@]67CCCN6C[C@H](F)C7)nc5c3F)N3CCCNCC3CO4)c12 (stereo partly drawn) [compound 151, 2-amino-4-(12-chloro-10-fluoro-8-(((2R,7aS)-2-fluorotetrahydro-1H-pyrrolizin-7a(5H)-yl)methoxy)-2,3,4,5,14,14a-hexahydro-1H-[1,4]diazepino[2′,1′:3,4][1,4]oxazepino [5,6,7-de]quinazolin-11-yl)-7-fluorobenzo[b]thiophene-3-carbonitrile] | < 5
3 | < 5 | < 5 | < 5 | < 5 | < 5 | < 5 | N#Cc1c(N)sc2c(F)ccc(-c3c(Cl)c4c5c(nc(OC[C@@]67CCCN6C[C@H](F)C7)nc5c3F)N3CCCC[C@@H]3CCO4)c12 [compound 196, 2-amino-4-((6aR)-3-chloro-1-fluoro-13-(((2R,7aS)-2-fluorotetrahydro-1H-pyrrolizin-7a(5H)-yl)methoxy)-6,6a,7,8,9,10-hexahydro-5H-pyrido[11,2′:5,6][1,5]oxazocino[4,3,2-de]quinazolin-2-yl)-7-fluorobenzo[b]thiophene-3-carbonitrile] | < 5
4 | < 5 | < 5 | < 5 | < 5 | < 5 | < 5 | N#Cc1c(N)sc2c(F)ccc(-c3c(Cl)c4c5c(nc(OC[C@@]67CCCN6C[C@H](F)C7)nc5c3F)N3Cc5ccnn5CCC3CCO4)c12 (single isomer, unassigned) [compound 153] | < 5
5 | < 5 | > 5 | < 5 | < 5 | < 5 | > 5 | CN1c2nc(OC[C@@]34CCCN3C[C@H](F)C4)nc3c(F)c(-c4ccc(F)c5sc(N)c(C#N)c45)c(Cl)c(c23)OC2CNCC21 (stereo partly drawn) [compound 214, 2-amino-4-(6-chloro-4-fluoro-2-(((2R,7aS)-2-fluorotetrahydro-1H-pyrrolizin-7a(5H)-yl)methoxy)-11-methyl-7a,8,9,10,10a,11-hexahydropyrrolo[3′,4′:2,3][1,4]oxazepino [5,6,7-de]quinazolin-5-yl)-7-fluorobenzo[b]thiophene-3-carbonitrile] | > 5
6 | < 5 | < 5 | < 5 | < 5 | < 5 | < 5 | N#Cc1c(N)sc2c(F)ccc(-c3c(Cl)c4c5c(nc(OC[C@@]67CCCN6C[C@H](F)C7)nc5c3F)N3Cc5ccnn5CCC3CO4)c12 (stereo partly drawn) [compound 134, 2-amino-4-(3-chloro-1-fluoro-15-(((2R,7aS)-2-fluorotetrahydro-1H-pyrrolizin-7a(5H)-yl)methoxy)-5,5a,6,7-tetrahydro-12H-pyrazolo[5″,1″:3′,4′][1,4]diazepino[7′,1′:3,4][1,4]oxazepino[5,6,7-de]quinazolin-2-yl)-7-fluorobenzo[b]thiophene-3-carbonitrile] | < 5
7 | < 5 | < 5 | < 5 | < 5 | < 5 | > 5 | CN1c2nc(OC[C@@]34CCCN3C[C@H](F)C4)nc3c(F)c(-c4ccc(F)c5sc(N)c(C#N)c45)c(Cl)c(c23)OCC2CN(C(=O)C(F)F)CC21 (stereo partly drawn) [compound 120, 2-amino-4-(6-chloro-10-(2,2-difluoroacetyl)-4-fluoro-2-(((2R,7aS)-2-fluorotetrahydro-1H-pyrrolizin-7a(5H)-yl)methoxy)-12-methyl-8a,9,10,11,11a,12-hexahydro-8H-pyrrolo[3′,4′:6,7][1,5]oxazocino[4,3,2-de]quinazolin-5-yl)-7-fluorobenzo[b]thiophene-3-carbonitrile] | < 5
8 | < 5 | < 5 | < 5 | < 5 | < 5 | < 5 | N#Cc1c(N)sc2c(F)ccc(-c3c(Cl)c4c5c(nc(OC[C@@]67CCCN6C[C@H](F)C7)nc5c3F)N3CCC[C@@H]3CO4)c12 [compound 144, 2-amino-4-((12aR)-10-chloro-8-fluoro-6-(((2R,7aS)-2-fluorotetrahydro-1H-pyrrolizin-7a(5H)-yl)methoxy)-2,3,12,12a-tetrahydro-1H-pyrrolo[2′,1′:3,4][1,4]oxazepino[5,6,7-de]quinazolin-9-yl)-7-fluorobenzo[b]thiophene-3-carbonitrile] | < 5
9 | < 5 | < 5 | < 5 | < 5 | < 5 | < 5 | CN1c2nc(OC[C@@]34CCCN3C[C@H](F)C4)nc3c(F)c(-c4ccc(F)c5sc(N)c(C#N)c45)c(Cl)c(c23)OC2CN(C=O)CC21 (stereo partly drawn) [compound 126, 2-amino-4-(6-chloro-4-fluoro-2-(((2R,7aS)-2-fluorotetrahydro-1H-pyrrolizin-7a(5H)-yl)methoxy)-9-formyl-11-methyl-7a,8,9,10,10a,11-hexahydropyrrolo[3′,4′:2,3][1,4]oxazepino[5,6,7-de]quinazolin-5-yl)-7-fluorobenzo[b]thiophene-3-carbonitrile] | < 5
10 | < 5 | < 5 | < 5 | < 5 | < 5 | < 5 | N#Cc1c(N)sc2c(F)ccc(-c3c(Cl)c4c5c(nc(OC[C@@]67CCCN6C[C@H](F)C7)nc5c3F)N3CC[C@H]3CO4)c12 [compound 192, 2-amino-4-((11aS)-9-chloro-7-fluoro-5-(((2R,7aS)-2-fluorotetrahydro-1H-pyrrolizin-7a(5H)-yl)methoxy)-1,2,11,11a-tetrahydroazeto[2′,1′:3,4][1,4]oxazepino [5,6,7-de]quinazolin-8-yl)-7-fluorobenzo[b]thiophene-3-carbonitrile] | < 5
11 | < 5 | < 5 | < 5 | < 5 | < 5 | < 5 | N#Cc1c(N)sc2c(F)ccc(-c3c(Cl)c4c5c(nc(OC[C@@]67CCCN6C[C@H](F)C7)nc5c3F)N3CC[C@@H]3CCO4)c12 [compound 167, 2-amino-4-((12aR)-9-chloro-7-fluoro-5-(((2R,7aS)-2-fluorotetrahydro-1H-pyrrolizin-7a(5H)-yl)methoxy)-1,11,12,12a-tetrahydro-2H-azeto[11,2′:5,6][1,5]oxazocino[4,3,2-de]quinazolin-8-yl)-7-fluorobenzo[b]thiophene-3-carbonitrile] | < 5

Row | Structure (SMILES) | IC50 (K-Ras G12V) [µM] | IC50 (SW620 cells) [µM] | IC50 (K-Ras G12S) [µM] | IC50 (wildtype K-Ras) [µM] | IC50 (K-Ras G12D) [µM] | IC50 (A549 cells) [µM] | IC50 (GP2D cells) [µM]
12 | N#Cc1c(N)sc2c(F)ccc(-c3c(Cl)c4c5c(nc(OC[C@@]67CCCN6C[C@H](F)C7)nc5c3F)N3[C@H](CO4)C[C@@H]4OCC[C@@H]43)c12 [compound 133, 2-amino-4-((5aS,6aS,9aS)-3-chloro-1-fluoro-12-(((2R,7aS)-2-fluorotetrahydro-1H-pyrrolizin-7a(5H)-yl)methoxy)-5a,6,6a,8,9,9a-hexahydro-5H-furo[2″,3″:4′,5′]pyrrolo[2′,1′:3,4][1,4]oxazepino[5,6,7-de]quinazolin-2-yl)-7-fluorobenzo[b]thiophene-3-carbonitrile] | < 5 | < 5 | < 5 | < 5 | < 5 | < 5 | < 5
